# Experiments:
# [1] = tested on: crabgrass, large; experiment: Test A preemergence; format: in vivo, Digitaria sanguinalis; conditions: preemergence
# In short: (§1)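 Visual injury ratings, 0 = no effect to 100 = complete control, taken about 10 days after treatment against untreated controls. Test chemicals, in a non-phytotoxic surfactant-containing solvent, were sprayed onto soil preemergence or onto one- to two-leaf plants (2–10 cm) postemergence, in loam–sand soil under greenhouse conditions.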
# [2] = tested on: wheat; experiment: Test A postemergence; format: in vivo, Triticum aestivum
# In short: as §1
# [3] = tested on: ragweed; experiment: Test C preemergence; format: in vivo, Ambrosia elation
# In short: (§2)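 Seeds sown in loam–sand blend and treated preemergence with test chemicals in non-phytotoxic solvent with surfactant; postemergence plants in peat-based medium, treated at 2–18 cm (1- to 4-leaf stage). Greenhouse 13 to 15 days, then visual rating versus controls, 0 (no effect) to 100 (complete control).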
# [4] = tested on: pigweed; experiment: Test A postemergence; format: in vivo, Amaranthus retroflexus
# In short: as §1
# [5] = tested on: blackgrass; experiment: Test C preemergence; format: in vivo, Alopecurus myosuroides
# In short: as §2
# [6] = tested on: barnyardgrass; experiment: Test A preemergence; format: in vivo, Echinochloa crus-galli; conditions: preemergence
# In short: as §1
# [7] = tested on: wheat; experiment: Test A preemergence; format: in vivo, Triticum aestivum; conditions: preemergence
# In short: as §1
# [8] = tested on: oilseed rape; experiment: Test C preemergence; format: in vivo, Brassica napus
# In short: as §2
# [9] = tested on: foxtail, giant; experiment: Test C preemergence; format: in vivo, Setaria faberii
# In short: as §2
# [10] = tested on: velvetleaf; experiment: Test C preemergence; format: in vivo, Abutilon theophrasti
# In short: as §2
# [11] = tested on: velvetleaf; experiment: Test A preemergence; format: in vivo, Abutilon theophrasti; conditions: preemergence
# In short: as §1
# [12] = tested on: corn; experiment: Test C preemergence; format: in vivo, Zea mays
# In short: as §2
# [13] = tested on: corn; experiment: Test A preemergence; format: in vivo, Zea mays; conditions: preemergence
# In short: as §1
# [14] = tested on: wheat; experiment: Test C preemergence; format: in vivo, Triticum aestivum
# In short: as §2
# [15] = tested on: barnyardgrass; experiment: Test C preemergence; format: in vivo, Echinochloa crus-galli
# In short: as §2
# [16] = tested on: crabgrass, large; experiment: Test A postemergence; format: in vivo, Digitaria sanguinalis
# In short: as §1
# [17] = tested on: johnsongrass; experiment: Test C preemergence; format: in vivo, Sorghum halepense
# In short: as §2
# [18] = 125 g ai/ha, visual injury, 0 to 100 scale, approx. 10 days
# [19] = 500 g ai/ha, visual injury after approx. 10 days, 0 to 100 scale (0 no effect, 100 complete control)
# [20] = Postemergence, 500 g ai/ha, visual rating after approx. 10 days, 0 to 100 scale (0 no effect, 100 complete control)
# [21] = postemergence, 125 g ai/ha, about 10 days, visual rating on 0 to 100 scale (0 no effect, 100 complete control)
# [22] = preemergence, 31 g ai/ha, visual rating, scale 0 to 100 (0 no effect, 100 complete control), 13 to 15 days
# [23] = preemergence, 62 g ai/ha, 13 to 15 days, scale 0 to 100, 0 = no effect, 100 = complete control
# [24] = preemergence, 125 g ai/ha, scale 0 to 100, 0 is no effect, 100 is complete control
smiles,measurement,setting,value
CCc1cc(C(=O)NC2CC2)nn1Cc1ccnc(OC(F)F)c1 [Compound 98],"Crabgrass, Large plant response rating",[1]; [18],100
same,"Crabgrass, Large plant response rating",[1]; [19],100
same,Wheat plant response rating,[2]; [20],80
same,Wheat plant response rating,[2]; [21],70
same,"Plant response rating (scale of 0 to 100), Ragweed","[3]; Preemergence, 250 g ai/ha",100
same,Ragweed plant response rating,[3]; [22],95
same,"Plant response rating, Ragweed",[3]; [23],100
same,Ragweed plant response rating,[3]; [24],100
same,Pigweed plant response rating,[4]; [20],100
same,Pigweed plant response rating,[4]; [21],100
same,"Plant response rating (scale of 0 to 100), Blackgrass","[5]; Preemergence, 250 g ai/ha",100
same,Blackgrass plant response rating,[5]; [22],70
same,"Plant response rating, Blackgrass",[5]; [23],100
same,Blackgrass plant response rating,[5]; [24],100
same,Barnyardgrass plant response rating,[6]; [18],90
same,Barnyardgrass plant response rating,[6]; [19],100
same,Wheat plant response rating,[7]; [18],30
same,Wheat plant response rating,[7]; [19],90
same,"Plant response rating (scale of 0 to 100), Oilseed Rape","[8]; Preemergence, 250 g ai/ha",100
same,Oilseed Rape plant response rating,[8]; [22],100
same,"Plant response rating, Oilseed Rape",[8]; [23],100
same,Oilseed Rape plant response rating,[8]; [24],100
same,"Plant response rating (scale of 0 to 100), Foxtail, Giant","[9]; Preemergence, 250 g ai/ha",100
same,"Foxtail, Giant plant response rating",[9]; [22],100
same,"Plant response rating, Foxtail, Giant",[9]; [23],100
same,"Foxtail, Giant plant response rating",[9]; [24],100
same,"Plant response rating (scale of 0 to 100), Velvetleaf","[10]; Preemergence, 250 g ai/ha",100
same,Velvetleaf plant response rating,[10]; [22],100
same,"Plant response rating, Velvetleaf",[10]; [23],100
same,Velvetleaf plant response rating,[10]; [24],100
same,Velvetleaf plant response rating,[11]; [18],100
same,Velvetleaf plant response rating,[11]; [19],100
same,"Plant response rating (scale of 0 to 100), Corn","[12]; Preemergence, 250 g ai/ha",95
same,Corn plant response rating,[12]; [22],35
same,"Plant response rating, Corn",[12]; [23],45
same,Corn plant response rating,[12]; [24],90
same,Corn plant response rating,[13]; [18],70
same,Corn plant response rating,[13]; [19],80
same,"Plant response rating (scale of 0 to 100), Wheat","[14]; Preemergence, 250 g ai/ha",90
same,Wheat plant response rating,[14]; [22],30
same,"Plant response rating, Wheat",[14]; [23],45
same,Wheat plant response rating,[14]; [24],70
same,"Plant response rating (scale of 0 to 100), Barnyardgrass","[15]; Preemergence, 250 g ai/ha",100
same,Barnyardgrass plant response rating,"[15]; preemergence, 31 g ai/ha, scale 0 to 100 (0 no effect, 100 complete control), 13 to 15 days",30
same,"Plant response rating, Barnyardgrass",[15]; [23],100
same,Barnyardgrass plant response rating,[15]; [24],100
same,"Crabgrass, Large plant response rating",[16]; [20],90
same,"Crabgrass, Large plant response rating",[16]; [21],90
same,"Plant response rating (scale of 0 to 100), Johnsongrass","[17]; Preemergence, 250 g ai/ha",100
same,Johnsongrass plant response rating,[17]; [22],65
same,"Plant response rating, Johnsongrass",[17]; [23],70
same,Johnsongrass plant response rating,[17]; [24],100

# Reference: US20150105252A1, “SUBSTITUTED PYRAZOLES AS HERBICIDES” (E I DU PONT DE NEMOURS AND COMPANY, priority 2013, published 2015)
